{"source": "patent US5166348A", "about": "“Bornyl and isobornyl esters of carboxylic acids of condensed tetrahydroquinoxalines” (Uralsky politekhnichesky institut, priority 1989, dated 1992)", "system": "influenza virus strains resistant to remantadine", "assay_type": "in vivo", "details": "chick embryos, 1 mg/embryo", "data": [{"compound": "CC1=C(C(=O)OC2CC3CCC2(C)C3(C)C)C2Nc3ccccc3N(C)C2O1", "note": "(stereo not shown) [compound 1a, isobornyl ester of 2,9-dimethyl-3a,4,9,9a-tetrahydrofuro [2,3-b] quinoxaline-3-carboxylic acid]", "values": [{"measurement": "sensitivity of strains resistant or only slightly sensitive to remantadine (in words)", "result": "Some virus strains that are resistant or only slightly sensitive to remantadine were sensitive to the proposed compound 1a"}]}]}
